Converted amounts (≈) assume the structure as drawn. The source made the active and inactive calls. The rule behind the calls is not given here.
Assays:
[1] = Toxicity in Artemia salina; assay type: organism-based; settings: in vivo
A549 = experiment: Cytotoxicity against human A549 cells; assay type: functional; settings: read-out: LC50 (the source's name)
P388 = experiment: Cytotoxicity against mouse P388 cells; assay type: functional; settings: read-out: LC50 (the source's name)
Rattus norvegicus = species on record: Rattus norvegicus; experiment: Inhibition of NADH dehydrogenase and oxidase activity of electron transport protein complex 1 in rat […] assessed as blockade of reduction-oxidation process; assay type: cell membranes
Nucleic Acid = experiment: Induction of strand scission activity in bacteriophage X174RF1 DNA infected in Escherichia coli; assay type: nucleic-acid assay; settings: unidentified phage
Mus musculus = experiment: (§1) Toxicity in ip dosed mouse; assay type: organism-based; settings: in vivo
EKVX = experiment: Cytotoxicity against human EKVX cells; assay type: functional; settings: read-out: LC50 (the source's name)
HOP-62 = experiment: Cytotoxicity against human HOP62 cells; assay type: functional; settings: read-out: LC50 (the source's name)
HOP-92 = experiment: Cytotoxicity against human HOP92 cells; assay type: functional; settings: read-out: LC50 (the source's name)
COLO 205 = experiment: Cytotoxicity against human COLO205 cells; assay type: functional; settings: read-out: LC50 (the source's name)
HCT-116 = experiment: Cytotoxicity against human HCT116 cells; assay type: functional; settings: read-out: LC50 (the source's name)
SF-268 = experiment: Cytotoxicity against human SF268 cells; assay type: functional; settings: read-out: LC50 (the source's name)
SF-295 = experiment: Cytotoxicity against human SF295 cells; assay type: functional; settings: read-out: LC50 (the source's name)
Malme-3M = experiment: Cytotoxicity against human MALME-3M cells; assay type: functional; settings: read-out: LC50 (the source's name)
M14 = experiment: Cytotoxicity against human M14 cells; assay type: functional; settings: read-out: LC50 (the source's name)
SK-MEL-28 = experiment: Cytotoxicity against human SK-MEL-28 cells; assay type: functional; settings: read-out: LC50 (the source's name)
SK-MEL-5 = experiment: Cytotoxicity against human SK-MEL-5 cells; assay type: functional; settings: read-out: LC50 (the source's name)
IGROV-1 = experiment: Cytotoxicity against human IGROV1 cells; assay type: functional; settings: read-out: LC50 (the source's name)
OVCAR-3 = experiment: Cytotoxicity against human OVCAR-3 cells; assay type: functional; settings: read-out: LC50 (the source's name)
A498 = experiment: Cytotoxicity against human A498 cells; assay type: functional; settings: read-out: LC50 (the source's name)
CAKI-1 = experiment: Cytotoxicity against human Caki1 cells; assay type: functional; settings: read-out: LC50 (the source's name)
RXF 393 = experiment: Cytotoxicity against human […] cells; assay type: functional; settings: read-out: LC50 (the source's name)
TK-10 = experiment: Cytotoxicity against human TK10 cells; assay type: functional; settings: read-out: LC50 (the source's name)
UO-31 = experiment: Cytotoxicity against human UO31 cells; assay type: functional; settings: read-out: LC50 (the source's name)
[2] = Cytotoxicity against human Hs 578T cells; assay type: functional; settings: read-out: LC50 (the source's name)
BT-549 = experiment: Cytotoxicity against human BT549 cells; assay type: functional; settings: read-out: LC50 (the source's name)
CCRF-CEM = experiment: Cytotoxicity against human CCRF-CEM cells; assay type: functional; settings: read-out: LC50 (the source's name)
HL-60(TB) = experiment: Cytotoxicity against human HL-60(TB) cells; assay type: functional; settings: read-out: LC50 (the source's name)
K562 = experiment: Cytotoxicity against human K562 cells; assay type: functional; settings: read-out: LC50 (the source's name)
MOLT-4 = experiment: Cytotoxicity against human MOLT4 cells; assay type: functional; settings: read-out: LC50 (the source's name)
[3] = Cytotoxicity against human […] cells; assay type: functional; settings: read-out: LC50 (the source's name)
SR = experiment: Cytotoxicity against human SR cells; assay type: functional; settings: read-out: LC50 (the source's name)
NCI-H226 = experiment: Cytotoxicity against human NCI-H226 cells; assay type: functional; settings: read-out: LC50 (the source's name)
NCI-H23 = experiment: Cytotoxicity against human NCI-H23 cells; assay type: functional; settings: read-out: LC50 (the source's name)
NCI-H322M = experiment: Cytotoxicity against human NCI-H322M cells; assay type: functional; settings: read-out: LC50 (the source's name)
NCI-H460 = experiment: Cytotoxicity against human NCI-H460 cells; assay type: functional; settings: read-out: LC50 (the source's name)
NCI-H522 = experiment: Cytotoxicity against human NCI-H522 cells; assay type: functional; settings: read-out: LC50 (the source's name)
HCC 2998 = experiment: Cytotoxicity against human HCC2998 cells; assay type: functional; settings: read-out: LC50 (the source's name)
HCT-15 = experiment: Cytotoxicity against human HCT15 cells; assay type: functional; settings: read-out: LC50 (the source's name)
HT-29 = experiment: Cytotoxicity against human HT-29 cells; assay type: functional; settings: read-out: LC50 (the source's name)
KM12 = experiment: Cytotoxicity against human KM12 cells; assay type: functional; settings: read-out: LC50 (the source's name)
SW-620 = experiment: Cytotoxicity against human SW620 cells; assay type: functional; settings: read-out: LC50 (the source's name)
SF-539 = experiment: Cytotoxicity against human SF539 cells; assay type: functional; settings: read-out: LC50 (the source's name)
SNB-19 = experiment: Cytotoxicity against human SNB19 cells; assay type: functional; settings: read-out: LC50 (the source's name)
U-251 = experiment: Cytotoxicity against human U251 cells; assay type: functional; settings: read-out: LC50 (the source's name)
LOX IMVI = experiment: Cytotoxicity against human LOXIMVI cells; assay type: functional; settings: read-out: LC50 (the source's name)
SK-MEL-2 = experiment: Cytotoxicity against human SK-MEL-2 cells; assay type: functional; settings: read-out: LC50 (the source's name)
UACC-257 = experiment: Cytotoxicity against human UACC257 cells; assay type: functional; settings: read-out: LC50 (the source's name)
UACC-62 = experiment: Cytotoxicity against human UACC62 cells; assay type: functional; settings: read-out: LC50 (the source's name)
OVCAR-4 = experiment: Cytotoxicity against human OVCAR4 cells; assay type: functional; settings: read-out: LC50 (the source's name)
OVCAR-5 = experiment: Cytotoxicity against human OVCAR5 cells; assay type: functional; settings: read-out: LC50 (the source's name)
OVCAR-8 = experiment: Cytotoxicity against human OVCAR8 cells; assay type: functional; settings: read-out: LC50 (the source's name)
SK-OV-3 = experiment: Cytotoxicity against human SKOV3 cells; assay type: functional; settings: read-out: LC50 (the source's name)
786-0 = experiment: Cytotoxicity against human 786-0 cells; assay type: functional; settings: read-out: LC50 (the source's name)
ACHN = experiment: Cytotoxicity against human ACHN cells; assay type: functional; settings: read-out: LC50 (the source's name)
PC-3 = experiment: Cytotoxicity against human PC3 cells; assay type: functional; settings: read-out: LC50 (the source's name)
DU-145 = experiment: Cytotoxicity against human DU145 cells; assay type: functional; settings: read-out: LC50 (the source's name)
MCF7 = experiment: Cytotoxicity against human MCF7 cells; assay type: functional; settings: read-out: LC50 (the source's name)
[4] = Cytotoxicity against human MCF7/ADR cells; assay type: functional; settings: NCI/ADR-RES, read-out: LC50 (the source's name)
MDA-MB-231 = experiment: Cytotoxicity against human MDA-MB-231 cells; assay type: functional; settings: read-out: LC50 (the source's name)
MDA-MB-435 = experiment: Cytotoxicity against human MDA-MB-435 cells; assay type: functional; settings: read-out: LC50 (the source's name)
MDA-N = experiment: Cytotoxicity against human MDA-N cells; assay type: functional; settings: read-out: LC50 (the source's name)
T47D = experiment: Cytotoxicity against human T47D cells; assay type: functional; settings: read-out: LC50 (the source's name)
[5] = as §1; assay type: organism-based; settings: in vivo

**Q.** Which LC50 [1] does the source give for O=C(NCCSSCCNC(=O)/C(Cc1ccc(O)c(Br)c1)=N/O)/C(Cc1ccc(O)c(Br)c1)=N/O [PSAMMAPLIN A] here?
**A.** 4 µg/mL (≈ 6.02 µM)

**Q.** What about the CC50 (A549) of the same molecule?
**A.** 6.43 µg/mL

**Q.** What about the CC50 (P388) of the same molecule?
**A.** 0.64 µg/mL (≈ 0.963 µM)

**Q.** With CC1=C/[C@H](C)C[C@@]2(C)CC[C@@H](O2)[C@@]23CC[C@@](C)(C[C@@H](O2)[C@H]2O[C@](C)(CC2=O)[C@@H](O)[C@@H]2CC[C@@]4(CCC[C@H](O4)[C@@H](C)C(=O)O[C@@H]4C[C@@H]([C@@]5(O)OCC[C@@H](C)[C@H]5O)O[C@@H]4\C=C\1)O2)O3 as the molecule, how does the Activity (Rattus norvegicus) read?
**A.** inactive

**Q.** What about the Activity (Nucleic Acid) of the same molecule?
**A.** inactive

**Q.** Which CC50 (P388) does the source give for O=c1[nH]cc(F)c(=O)[nH]1 [FLUOROURACIL] here?
**A.** 0.2 µg/mL (≈ 1.54 µM)

**Q.** With COc1cccc2c1C(=O)c1c(O)c3c(c(O)c1C2=O)C[C@@](O)(C(=O)CO)C[C@@H]3O[C@H]1C[C@H](N)[C@H](O)[C@H](C)O1 [DOXORUBICIN] as the molecule, how does the LD50 (Mus musculus) read?
**A.** 13 µg/mL

**Q.** Which results are given for CC1=C\[C@H](C)C[C@@]2(C)CC[C@@H](O2)[C@@]23CC[C@@](C)(C[C@@H](O2)[C@H]2O[C@](C)(CC2=O)[C@@H](O)[C@@H]2CC[C@@]4(CCC[C@H](O4)[C@@H](C)C(=O)O[C@@H]4C[C@@H]([C@@]5(O)OCC[C@@H](C)[C@H]5O)O[C@@H]4\C=C\1)O2)O3 [PECTENOTOXIN II]?
**A.** LC50 [1]: < 0.1 µg/mL; CC50 (EKVX): 62 nM; CC50 (HOP-62): 25.1 nM; CC50 (HOP-92): 807 nM; CC50 (COLO 205): 7.82 nM; CC50 (HCT-116): 73.3 nM; CC50 (SF-268): 154 nM; CC50 (SF-295): 77.7 nM; CC50 (Malme-3M): 123 nM; CC50 (M14): 4.73 µM; CC50 (SK-MEL-28): 42.3 nM; CC50 (SK-MEL-5): 55.2 nM; CC50 (IGROV-1): 67.3 nM; CC50 (OVCAR-3): 61.6 nM; CC50 (A498): 34.1 nM; CC50 (CAKI-1): 19.1 nM; CC50 (RXF 393): 30 nM; CC50 (TK-10): 72.5 nM; CC50 (UO-31): 56.3 nM; CC50 [2]: 77.9 nM; CC50 (BT-549): 62.7 nM; CC50 (CCRF-CEM): > 10 µM; CC50 (HL-60(TB)): > 10 µM; CC50 (K562): > 10 µM; CC50 (MOLT-4): > 10 µM; CC50 [3]: > 10 µM; CC50 (SR): > 10 µM; CC50 (A549): > 10 µM; CC50 (NCI-H226): > 10 µM; CC50 (NCI-H23): > 10 µM; CC50 (NCI-H322M): > 10 µM; CC50 (NCI-H460): > 10 µM; CC50 (NCI-H522): > 10 µM; CC50 (HCC 2998): > 10 µM; CC50 (HCT-15): > 10 µM; CC50 (HT-29): > 10 µM; CC50 (KM12): > 10 µM; CC50 (SW-620): > 10 µM; CC50 (SF-539): > 10 µM; CC50 (SNB-19): > 10 µM; CC50 (U-251): > 10 µM; CC50 (LOX IMVI): > 10 µM; CC50 (SK-MEL-2): > 10 µM; CC50 (UACC-257): > 10 µM; CC50 (UACC-62): > 10 µM; CC50 (OVCAR-4): > 10 µM; CC50 (OVCAR-5): > 10 µM; CC50 (OVCAR-8): > 10 µM; CC50 (SK-OV-3): > 10 µM; CC50 (786-0): > 10 µM; CC50 (ACHN): > 10 µM; CC50 (PC-3): > 10 µM; CC50 (DU-145): > 10 µM; CC50 (MCF7): > 10 µM; CC50 [4]: > 10 µM; CC50 (MDA-MB-231): > 10 µM; CC50 (MDA-MB-435): > 10 µM; CC50 (MDA-N): > 10 µM; CC50 (T47D): > 10 µM; LD50 [5]: 0.26 mg/kg

From ChEMBL document CHEMBL1150091, “Cytotoxic compounds from a two-sponge association” (J Nat Prod, 1995)
